Data set [1] can be described thus: in vivo. The note with it: rat, plasma, po, 2.5 mg/kg.
Data set [2] in a line: physchem. The note with it: aqueous.
The nature of data set [3]: in vivo. The note with it: rat, po, 2.5 mg/kg.
Data set [4] in a line: physchem. Conditions: aqueous. The source holds these as a separate data set.

≈ marks a conversion by molar mass, not a printed value. Where only a bound is given, the exact number is not on record here.

On to `CC(C)S(=O)(=O)c1ccccc1Nc1nc(Nc2cccc(NC(=O)CN)c2)ncc1Cl`, for which the AUC(0-inf) in the data set “in vivo [1]” is 454 ng·h/mL. Also, the solubility in “physchem [2]” was less than 100 µg/mL; in “physchem [4]”, 4000 µg/mL (≈ 8.42 mM). The compound further gave a half-life in the data set “in vivo [3]” of 30 min.

Values taken from ChEMBL document CHEMBL3351234, “Discovery of novel 2,4-diarylaminopyrimidine analogues (DAAPalogues) showing potent inhibitory activities against both wild-type and mutant ALK kinases” (J Med Chem, 2015).
